Test results as given in patent US6365603B1, “Aromatic compounds and pharmaceutical compositions containing them” (Zeneca Ltd., priority 1995, dated 2002).

Assays:
EP1 receptors = details: guinea pig ileum, dog fundus, cat trachea, chick ileum; cited from earlier work

Row | Structure (SMILES) | block of the effect of PGE2 on tissues (EP1 receptors) | melting point
1 | CC(=O)NNC(=O)N1Cc2ccccc2Oc2ccc(Cl)cc21 [SC-19220] | blocks the effect of PGE2 on some tissues such as guinea pig ileum or dog fundus but not on other tissues such as the cat trachea or chick ileum | 
2 | CCN(Cc1cc(Cl)ccc1OCC1CC1)c1ccc(C(=O)O)nn1 [Example 22, 6-[N-(5-Chloro-2-(cyclopropylmethoxy)benzyl)-N-ethylamino]pyridazine-3-carboxylic acid] |  | 119 to 120 °C
3 | CCN(Cc1cc(Br)ccc1OCC1CC1)c1ccc(C(=O)O)nn1 [Example 3, 6-[N-(5-Bromo-2-(cyclopropylmethoxy)benzyl)-N-ethylamino]pyridazine-3-carboxylic acid] |  | 73 to 80 °C
4 | CCCOc1ccc(Br)cc1CN(CC)c1ccc(C(=O)O)nn1 [Example 18, 6-(N-[5-Bromo-2-propoxybenzyl]-N-ethylamino)pyridazine-3-carboxylic acid] |  | 135 to 137 °C
5 | CCN(Cc1cc(Cl)ccc1OCC1CC1)c1ccc(C(N)=O)nn1 [Example 21, 6-[N-(5-Chloro-2-(cyclopropylmethoxy)benzyl)-N-ethylamino]pyridazine-3-carboxamide] |  | 177 to 178 °C
6 | CCN(Cc1cc(Cl)ccc1OCC1CC1)c1ccc(-c2nnn[nH]2)nn1 [Example 23, 5-[6-(N-[5-Chloro-2-cyclopropylmethoxybenzyl]-N-ethylamino)pyridazin-3-yl]tetrazole] |  | 190 to 192 °C
